Values quoted from earlier work as cited in US20080286341A1, “Buffered coated nicotine containing products” (priority 2007, published 2008).

Tests used:
[1] = from Handbook of Chemistry and Physics, 85th edition
[2] = smoking a cigarette

Compound | pKa value (in interval 8.0-9.6) [1] | time to reach the brain after inhalation [2]
NC(=O)C[C@H](N)C(=O)O [Aspargine] | 8.73 | 
CN1CCCC1c1cccnc1 (centres unmarked) [nicotine, 3-(1-methyl-2-pyrrolidinyl)-pyridine] |  | ten
